Test results taken from patent US20220168230A1, “NANOPARTICLE MEDIATED THERAPY” (Yale University, priority 2019, published 2022).

Key:
MCAO mice = assay: Therapeutic benefits in MCAO stroke mice (survival, TTC infarct volume, neurological score); type: in vivo; conditions: same amount of BA NPs and/or glyburide as in Gly-NPs, i.v. at 0, 24, 48 h, FIG. 6C, D
Text: MCAO models were generated according to Cai, et al. Neurosci Lett 2015, 597, 127-31; Guo, et al. ACS nano 2018, 12 (8), 8723-8732; Han, et al. Nanomedicine 2016, 12 (7), 1833-42; Yu, et al. Advanced Materials 2018, 30, 1705383. Briefly, rats were anesthetized with 5% isoflurane (Aerrane, Baxter, Deerfield, Ill.) in 30% O2/70% N2O using a Tabletop Anesthesia system (Harvard Apparatus, USA). Isoflurane was then maintained at 1.5%. During the procedures, the body temperature of mice was maintained at 37.0±0.5° C. Regional cerebral blood flow (rCBF) was monitored using a laser Doppler flowmeter (AD Instruments Inc.) duration the course of surgery. […]
Mice were given treatment intravenously at 0, 24 and 48 h after surgery. Mice were monitored for survival for 10 days and were euthanized if one of the following criteria was met: (1) the mouse's body weight dropped below 15% of its initial weight, or (2) the mouse became lethargic or sick and unable to feed. […] Three days later, the score of each mouse was assessed by a standard behavioral test and were scored as follows: (1) normal motor function, (2) flexion of torso and contralateral forelimb when animal was lifted by the tail, (3) hemiparalysis resulting in circling to the contralateral side when held by tail on flat surface, but normal posture at rest, (4) leaning to the contralateral side at rest, and (5) no spontaneous motor activity. […]

[1] = in vivo; cited from earlier work
[2] = PET scan of ^11C-glyburide uptake in left and right brain hemispheres of MCAO rats; type: in vivo, rat; conditions: intravenous injection, FIG. 1B
[3] = in vivo; cited from earlier work; remark: listed apart in the source

For `COc1ccc(Cl)cc1C(=O)NCCc1ccc(S(=O)(=O)NC(=O)NC2CCCCC2)cc1` [glyburide], the “therapeutic benefits compared with Gly-NP treatment” value (MCAO mice) is given as “significantly less efficacy” and the “ability to penetrate the BBB” value [1] is given as “limited ability to penetrate the BBB”.

With `COc1ccc(Cl)cc1C(=O)NCCc1ccc(S(=O)(=O)NC(=O)NC2CCCCC2)cc1` [^11C-glyburide] the “^11C-glyburide uptake, ischemic versus contralateral hemisphere” value [2] was “no significant difference”.

For `C[C@@H]1CC[C@H]2[C@@H](C)C(=O)O[C@@H]3O[C@@]4(C)CC[C@@H]1[C@]32OO4` [Artemisinin], the bioavailability [3] is listed as “less than 10%”.
